Source: ChEMBL document CHEMBL4651402, “Screening of ~5500 FDA-approved drugs and clinical candidates for anti-SARS-CoV-2 activity” (2021)
Counter-ions that a name gives are not always drawn.

Test system: SARS-CoV-2
Assay: microbe, parasite or virus in culture
Settings: Severe acute respiratory syndrome coronavirus 2, Vero C1008, 48 h

SMILES	IC50 [µM]	IC50 (read-out: pIC50 (converted)) [µM]
CCOc1cc(N)c([N+](=O)[O-])cc1C(=O)NC1CCN(CC2CC=CCC2)CC1 (centres undefined) [CINITAPRIDE]	> 20	> 20
CCn1nc(C(=O)O)c(=O)c2cc3c(cc21)OCO3 [CINOXACIN]	> 20	> 20
CCNC(=O)/C=C/c1cccc(Br)c1 [CINROMIDE]	> 20	> 20
CCCCCC1C(=O)N2C=C(c3ccccc3)c3ccccc3N2C1=O (centres undefined) [CINTAZONE]	> 20	> 20
CC(C)(Oc1ccc(C2CC2(Cl)Cl)cc1)C(=O)O (centres undefined) [CIPROFIBRATE]	> 20	> 20
CN(C)[C@@H](c1cccc(O)c1)[C@H]1CCCC[C@H]1O [CIRAMADOL]	> 20	> 20
COc1cc(N)c(Cl)cc1C(=O)NC1CCN(CCCOc2ccc(F)cc2)CC1OC (centres undefined) [CISAPRIDE]	> 20	> 20
CN(C)CCCC1(c2ccc(F)cc2)OCc2cc(C#N)ccc21 (centres undefined) [CITALOPRAM]	> 20	> 20
NC(=O)C1c2ccccc2C=Cc2ccccc21 [CITENAMIDE]	> 20	> 20
N#Cc1ccc(/C=N/NC(N)=S)s1 [CITENAZONE]	> 20	> 20
CC(=O)NC1CCSC1=O (centres undefined) [CITIOLONE]	> 20	> 20
COc1cc(OC)c2ccc(=O)oc2c1 [CITROPTEN]	> 20	> 20
CN(C)CCOC(c1ccccc1)c1ccnn1C (centres undefined) [CIZOLIRTINE]	> 20	> 20
CCCCCCCCCCC(C)(C)C(=O)Nc1c(OC)cc(OC)cc1OC [CL-976]	> 20	> 20
CC[C@H]1OC(=O)[C@H](C)[C@@H](O[C@H]2C[C@@](C)(OC)[C@@H](O)[C@H](C)O2)[C@H](C)[C@@H](O[C@@H]2O[C@H](C)C[C@H](N(C)C)[C@H]2O)[C@](C)(OC)C[C@@H](C)C(=O)[C@H](C)[C@@H](O)[C@]1(C)O [CLARITHROMYCIN]	> 20	> 20
O=C(O)[C@H]1/C(=C/CO)O[C@@H]2CC(=O)N21 [CLAVULANIC ACID]	> 20	> 20
CN1C(=O)CN2CCc3ccccc3C2c2cc(Cl)ccc21 (centres undefined) [CLAZOLAM]	> 20	> 20
N#CC(c1ccc(Cl)cc1)c1ccc(-n2ncc(=O)[nH]c2=O)cc1Cl (centres undefined) [CLAZURIL]	> 20	> 20
COc1cc(N)c(Cl)cc1C(=O)NC1CCN(Cc2ccccc2)CC1 [CLEBOPRIDE]	> 20	> 20
Clc1ccc(Cn2c(CN3CCCC3)nc3ccccc32)cc1 [CLEMIZOLE]	> 20	> 20
CC(C)(C)NCC(O)c1cc(Cl)c(N)c(Cl)c1 (centres undefined) [CLENBUTEROL]	> 20	> 20
NC1CCN(c2c(F)cc3c(=O)c(C(=O)O)cn(C4CC4)c3c2Cl)C1 (centres undefined) [CLINAFLOXACIN]	> 20	> 20
CCC[C@@H]1C[C@@H](C(=O)N[C@@H]([C@H]2O[C@H](SC)[C@H](O)[C@@H](O)[C@H]2O)[C@H](C)Cl)N(C)C1 [CLINDAMYCIN HYDROCHLORIDE]	> 20	> 20
Oc1c(I)cc(Cl)c2cccnc12 [CLIOQUINOL]	> 20	> 20

SMILES	IC50 [µM]	IC50 (read-out: pIC50 (converted)) [µM]
CN1C(=O)CC(=O)N(c2ccccc2)c2cc(Cl)ccc21 [CLOBAZAM]	> 20	> 20
CCC(=O)O[C@]1(C(=O)CCl)[C@@H](C)C[C@H]2[C@@H]3CCC4=CC(=O)C=C[C@]4(C)[C@@]3(F)[C@@H](O)C[C@@]21C [CLOBETASOL PROPIONATE]	> 20	> 20
C[C@H]1C[C@H]2[C@@H]3CCC4=CC(=O)C=C[C@]4(C)[C@@]3(F)[C@@H](O)C[C@]2(C)[C@@]1(O)C(=O)CCl [CLOBETASOL]	> 20	> 20
CC(CN(C)C)C(C)(O)Cc1ccc(Cl)cc1 (centres undefined) [CLOBUTINOL]	> 20	> 20
NC(=O)C1(N2CCCCC2)CCN(CCCN2c3ccccc3CCc3ccc(Cl)cc32)CC1 [CLOCAPRAMINE]	> 20	> 20
C[C@@H]1C[C@H]2[C@@H]3C[C@H](F)C4=CC(=O)C=C[C@]4(C)[C@@]3(Cl)[C@@H](O)C[C@]2(C)[C@H]1C(=O)COC(=O)C(C)(C)C [CLOCORTOLONE PIVALATE]	> 20	> 20
CCN(CC)CCN(CC)CC(=O)Nc1ccccc1Cl [CLODACAINE]	> 20	> 20
CN(C)CCCn1c(=O)n(-c2ccccc2)c2cc(Cl)ccc21 [CLODAZON]	> 20	> 20
Nc1nc(Cl)nc2c1ncn2[C@@H]1O[C@H](CO)[C@@H](O)[C@@H]1F [CLOFARABINE]	> 20	> 20
CC(C)/N=c1\cc2n(-c3ccc(Cl)cc3)c3ccccc3nc-2cc1Nc1ccc(Cl)cc1 [CLOFAZIMINE]	> 20	> 20
CCN(CC)CCNC(=O)COc1ccc(Cl)cc1 [CLOFEXAMIDE]	> 20	> 20
CCOC(=O)C(C)(C)Oc1ccc(Cl)cc1 [CLOFIBRATE]	> 20	> 20
CC(C)(Oc1ccc(Cl)cc1)C(=O)O [CLOFIBRIC ACID]	> 20	> 20
CC(C)(C)CC(C)(C)c1ccc(O)c(Cc2ccc(Cl)cc2Cl)c1 [CLOFOCTOL]	> 20	> 20
CN(C)CCCC1c2ccccc2Nc2ccc(Cl)cc21 (centres undefined) [CLOMACRAN]	> 20	> 20
NC1=NCC(c2ccc(Cl)cc2)O1 (centres undefined) [CLOMINOREX]	> 20	> 20
O=C1CN=C(c2ccccc2Cl)c2cc([N+](=O)[O-])ccc2N1 [CLONAZEPAM]	> 20	> 20
Clc1cccc(Cl)c1NC1=NCCN1 [CLONIDINE]	> 20	> 20
Cc1c(Cl)cccc1Nc1ncccc1C(=O)OCC(O)CO (centres undefined) [CLONIXERIL]	> 20	> 20
Cc1c(Cl)cccc1Nc1ncccc1C(=O)O [CLONIXIN]	> 20	> 20
C[C@@H]1CCC[C@H](C)N1NC(=O)c1ccc(Cl)c(S(N)(=O)=O)c1 [CLOPAMIDE]	> 20	> 20
Clc1ccc(C(OCCN2CCCCC2)c2ccccc2)cc1 (centres undefined) [CLOPERASTINE]	> 20	> 20
Cc1nc(C)c(Cl)c(O)c1Cl [CLOPIDOL]	> 20	> 20
O=c1[nH]c2cc(Cl)ccc2n1C1CCN(CCCC(c2ccc(F)cc2)c2ccc(F)cc2)CC1 [CLOPIMOZIDE]	> 20	> 20

SMILES	IC50 [µM]	IC50 (read-out: pIC50 (converted)) [µM]
Cc1cc(CC(=O)O)c(C)n1-c1ccc(Cl)cc1 [CLOPIRAC]	> 20	> 20
C#CCN(C)CCCOc1ccc(Cl)cc1Cl [CLORGILINE]	> 20	> 20
O=C1c2ccccc2C(=O)C1c1ccc(Cl)cc1 [CLORINDIONE]	> 20	> 20
O=C(CCCN1CCC(C(=O)c2ccc(Cl)cc2)CC1)c1ccc(F)cc1 [CLOROPERONE]	> 20	> 20
CN1CCN(C2Cc3ccccc3Sc3ccc(Cl)cc32)CC1 (centres undefined) [CLOROTEPINE]	> 20	> 20
CC(C)NCC(O)c1ccccc1Cl (centres undefined) [CLORPRENALINE]	> 20	> 20
Nc1cc(C(Cl)=C(Cl)Cl)c(S(N)(=O)=O)cc1S(N)(=O)=O [CLORSULON]	> 20	> 20
CC(C)(N)Cc1ccccc1Cl [CLORTERMINE]	> 20	> 20
Cc1cc(C(C#N)c2ccc(Cl)cc2)c(Cl)cc1NC(=O)c1cc(I)cc(I)c1O (centres undefined) [CLOSANTEL]	> 20	> 20
CN1CCN(C2=Nc3ccccc3Sc3ccc(Cl)cc32)CC1 [CLOTHIAPINE]	> 20	> 20
Clc1ccccc1C(c1ccccc1)(c1ccccc1)n1ccnc1 [CLOTRIMAZOLE]	> 20	> 20
Cc1onc(-c2ccccc2Cl)c1C(=O)N[C@@H]1C(=O)N2[C@@H]1SC(C)(C)[C@@H]2C(=O)O [CLOXACILLIN]	> 20	> 20
O=C1CN2CCOC2(c2ccccc2Cl)c2cc(Cl)ccc2N1 (centres undefined) [CLOXAZOLAM]	> 20	> 20
Oc1ccc(Cl)c2cccnc12 [CLOXYQUIN]	> 20	> 20
CN1CCN(C2=Nc3cc(Cl)ccc3Nc3ccccc32)CC1 [CLOZAPINE]	> 20	> 20
COC(=O)[C@H]1[C@@H](OC(=O)c2ccccc2)C[C@@H]2CC[C@H]1N2C [COCAINE]	> 20	> 20
C=C[C@@]1(C)CC(=O)[C@]2(O)[C@@]3(C)[C@@H](O)CCC(C)(C)[C@@H]3[C@H](O)[C@H](OC(C)=O)[C@@]2(C)O1 [COLFORSIN]	> 20	> 20
CC(C)(C)NCC(O)c1ccc(O)c(O)c1 (centres undefined) [COLTEROL]	> 20	> 20
COc1ccc(/C=C\c2cc(OC)c(OC)c(OC)c2)cc1O [COMBRETASTATIN A4]	> 20	> 20
C[C@@H]1O[C@@H](O[C@H]2CC[C@]3(C=O)[C@H]4CC[C@]5(C)[C@@H](C6=CC(=O)OC6)CC[C@]5(O)[C@@H]4CC[C@]3(O)C2)[C@H](O)[C@H](O)[C@H]1O [CONVALLATOXIN]	> 20	> 20
Nc1ncnc2c1ncn2[C@@H]1O[C@H](CO)C[C@H]1O [CORDYCEPIN]	> 20	> 20
CCOC[C@]12Cc3cnn(-c4ccc(F)cc4)c3C=C1CCN(S(=O)(=O)c1ccc(C(F)(F)F)cc1)C2 [CORT 108297]	> 20	> 20
C[C@]12C[C@H](O)[C@H]3[C@@H](CCC4=CC(=O)CC[C@@]43C)[C@@H]1CC[C@@H]2C(=O)CO [CORTICOSTERONE]	> 20	> 20
CC(=O)OCC(=O)[C@@]1(O)CC[C@H]2[C@@H]3CCC4=CC(=O)CC[C@]4(C)[C@H]3C(=O)C[C@@]21C [CORTISONE ACETATE]	> 20	> 20
